Measurements taken from patent US10842807B2, “Methods of treating neurodegenerative disorders comprising DNA methyltransferase inhibitors” (Washington University, priority 2016, dated 2020).
“Also recorded” adds a separate entry of the source.

Legend:
Format in all cases: cell-based, mouse
[1] = system: Bdnf exon IV, VI, and IX transcripts; assay: qRT-PCR of Bdnf exon transcripts in Htt-72Q cortical neurons; conditions: Htt-72Q-expressing cortical neurons; vs. Htt-72Q plus vehicle
Method: RNA was harvested 5 days later and subjected to qRT-PCR for total Bdnf (coding exon IX) using β-actin and 18S rRNA as reference genes. […] FIG. 3C depicts the schematic of the mouse Bdnf locus and the relative RNA levels of the Bdnf exons. White boxes, non-coding exons; gray box, coding exon. qRT-PCR was performed as in using exon-specific Bdnf primers. […] (FIG. 3G, FIG. 3H) Cortical neurons were co-transduced with lenti viruses expressing Htt and indicated shRNA and processed as in (FIG. 3C). […] (FIG. 3I) Primary cortical neurons from BACHD mice were treated with decitabine (0.2 μM) or vehicle for 3.5 days. qRT-PCR was performed using β-actin as a reference gene. […] Data are presented as mean+SEM.
Mouse primary cortical and striatal neurons from embryonic day (E) 15.5 Swiss Webster mouse fetuses (Taconic) were first plated in the minimal essential medium (MEM) containing 10% FBS, 0.45% glucose, 1 mM sodium pyruvate, 2 mM glutamine, 20 U/ml penicillin and 20 μg/ml streptomycin, for 3 h and then maintained in serum-free Neurobasal medium (Life Technologies) containing NeuroCult™ SM1 neuronal supplement ([…] Technologies), 0.5 mM glutamine and 25 μM glutamate for the first 3 d in a humidified incubator (37° C. in 5% CO2). Half of the medium was replaced with Neurobasal medium with SM1 and 0.5 mM glutamine every 3 days.

[2] = system: Htt-72Q-expressing primary cortical neurons; assay: MTS cell viability assay in Htt-expressing primary cortical neurons; conditions: for viability of Htt-72Q-expressing neurons (MTS assay): DIV 5 cortical neurons transduced with Htt lentivirus, treated with drug or DMSO (=0 μM), MTS at DIV 14, vs. Htt-72Q (0 μM)
Method: Mouse primary cortical and striatal neurons from embryonic day (E) 15.5 Swiss Webster mouse fetuses (Taconic) were first plated in the minimal essential medium (MEM) containing 10% FBS, 0.45% glucose, 1 mM sodium pyruvate, 2 mM glutamine, 20 U/ml penicillin and 20 μg/ml streptomycin, for 3 h and then maintained in serum-free Neurobasal medium (Life Technologies) containing NeuroCult™ SM1 neuronal supplement ([…] Technologies), 0.5 mM glutamine and 25 μM glutamate for the first 3 d in a humidified incubator (37° C. in 5% CO2). Half of the medium was replaced with Neurobasal medium with SM1 and 0.5 mM glutamine every 3 days. Primary cortical neurons plated on 96-well flat clear bottom black plates (Corning #3904) at 4×10^4 cells/well were infected with Htt exon1 expression lentivirus (Htt-25Q or Htt-72Q) or control empty vector lentivirus at 5 days in vitro (DIV 5). Primary striatal neurons plated on 96-well plates at 1×10^5 cells/well were infected with Htt exon1 expression lentivirus at DIV 4. Viral copy number was adjusted for transduction of neurons on the basis of titer measured using the Lenti-X qRT-PCR titration kit (Clontech), and equal numbers of viral particles of Htt-25Q and Htt-72Q expressing lentiviruses were used for transduction. For the experiments to test effects of DNMT inhibitors, neurons were treated with inhibitors six hours after Htt lentiviral infection. One half of the media was changed every 3 days with media containing new drug. In knockdown experiments in Htt-expressing neurons, primary cortical neurons were cotransduced with Htt-expressing lentivirus and Dnmt shRNA or control shRNA lentivirus at DIV 5. pLKO.1-TRC1-luciferase (Luci) and pLKO.1-TRC2-LacZ were used as control for RNAi with pLKO.1-TRC1-Dnmt3a and pLKO.1-TRC2-Dnmt1, respectively. Lentiviral particles were prepared by transfecting 293LE cells with the lentiviral plasmid of interest along with packaging plasmid psPAX2 and envelope plasmid pCMV-SVG as described previously^86. Four days after transfection, viruses in the conditioned media were collected and purified using Lenti-X Concentrator (Clontech). Primary cortical neurons from BACHD mouse embryos (E15.5) were individually plated into separate wells and treated at DIV 4 with decitabine or vehicle for 3.5 days.

[3] = system: Htt-72Q-expressing primary cortical neurons; assay: Neurofilament (NF) immunofluorescence, neurite degeneration in cortical neurons; conditions: fixed at DIV 14; vs. Htt-72Q (0 μM)
Method: (§1) Mouse primary cortical and striatal neurons from embryonic day (E) 15.5 Swiss Webster mouse fetuses (Taconic) were first plated in the minimal essential medium (MEM) containing 10% FBS, 0.45% glucose, 1 mM sodium pyruvate, 2 mM glutamine, 20 U/ml penicillin and 20 μg/ml streptomycin, for 3 h and then maintained in serum-free Neurobasal medium (Life Technologies) containing NeuroCult™ SM1 neuronal supplement ([…] Technologies), 0.5 mM glutamine and 25 μM glutamate for the first 3 d in a humidified incubator (37° C. in 5% CO2). Half of the medium was replaced with Neurobasal medium with SM1 and 0.5 mM glutamine every 3 days. Primary cortical neurons plated on 96-well flat clear bottom black plates (Corning #3904) at 4×10^4 cells/well were infected with Htt exon1 expression lentivirus (Htt-25Q or Htt-72Q) or control empty vector lentivirus at 5 days in vitro (DIV 5). Primary striatal neurons plated on 96-well plates at 1×10^5 cells/well were infected with Htt exon1 expression lentivirus at DIV 4. Viral copy number was adjusted for transduction of neurons on the basis of titer measured using the Lenti-X qRT-PCR titration kit (Clontech), and equal numbers of viral particles of Htt-25Q and Htt-72Q expressing lentiviruses were used for transduction. […]
(§2) For the measurement of neurofilament (NF) immunofluorescence intensity, cortical and striatal neurons cultured in a 96-well plate were fixed in 4% paraformaldehyde (PFA) in PBS for 20 min nine and seven days after Htt lentiviral infection, respectively, permeabilized with 0.1% Triton X-100 in PBS for 15 min at room temperature, and subjected to indirect immunofluorescence with anti-NF (2H3) primary antibody and Alexa Fluor 568-conjugated goat anti-mouse IgG secondary antibody (Life Technologies). […] Following image background subtraction, the NF immunofluorescence intensity was quantified using an ImageJ-based macro. Image capture and quantification of Htt (EM48) immunofluorescence intensity were performed as described for those of NF. […] About 300 nuclei from three random fields in a well were counted. […]

[4] = system: Htt-72Q-expressing primary striatal neurons; assay: Neurofilament (NF) immunofluorescence, neurite degeneration in striatal neurons; conditions: DIV 4 striatal neurons transduced, fixed seven days later; vs. Htt-72Q (0 μM)
Method: as §1, §2

[5] = Htt-72Q cortical neurons, MTS assay (FIG. 1B)

Row | Compound | expression of Bdnf exon IV, VI, and IX transcripts [1] | viability of Htt-72Q-expressing neurons (MTS assay) [2] | concentration giving nearly full protection [2, 5] | lowest concentration with significant neuroprotection [2, 5] | Htt-72Q-induced neurite degeneration (NF immunofluorescence intensity), cortical neurons [3] | mutant Htt-induced neurite degeneration (NF immunofluorescence intensity), striatal neurons [4]
1 | Nc1ncn([C@H]2C[C@H](O)[C@@H](CO)O2)c(=O)n1 [decitabine, 5-aza-2′-deoxycytidine] | increased the expression of Bdnf exon IV, VI, and IX transcripts | increased the viability of Htt-72Q-expressing neurons; also recorded: increased the viability of mutant Htt-expressing neurons | 0.2 µM | 0.02 µM | blocked Htt-72Q-induced neurite degeneration | protected neurons from mutant Htt-induced neurite degeneration
2 | Nc1nc(=O)n([C@H]2C[C@H](O)[C@@H](CO)O2)cc1F [FdCyd, 5-fluoro-2′-deoxycytidine] | increased the expression of Bdnf exon IV, VI, and IX transcripts | increased the viability of Htt-72Q-expressing neurons | – | – | protected neurons from Htt-72Q-induced neurite degeneration | protected neurons from mutant Htt-induced neurite degeneration
